The values below are quoted from earlier work in US20130281394A1, “Chemosensory Receptor Ligand-Based Therapies” (ELCELYX THERAPEUTICS, INC., priority 2010, published 2013).

Marks after values point to notes of the source that are not given here.

In the series the target is T1, sweet receptor (Homo sapiens, UniProt Q7RTX0+Q8TE23).
T1 sequence (Q8TE23 20-839): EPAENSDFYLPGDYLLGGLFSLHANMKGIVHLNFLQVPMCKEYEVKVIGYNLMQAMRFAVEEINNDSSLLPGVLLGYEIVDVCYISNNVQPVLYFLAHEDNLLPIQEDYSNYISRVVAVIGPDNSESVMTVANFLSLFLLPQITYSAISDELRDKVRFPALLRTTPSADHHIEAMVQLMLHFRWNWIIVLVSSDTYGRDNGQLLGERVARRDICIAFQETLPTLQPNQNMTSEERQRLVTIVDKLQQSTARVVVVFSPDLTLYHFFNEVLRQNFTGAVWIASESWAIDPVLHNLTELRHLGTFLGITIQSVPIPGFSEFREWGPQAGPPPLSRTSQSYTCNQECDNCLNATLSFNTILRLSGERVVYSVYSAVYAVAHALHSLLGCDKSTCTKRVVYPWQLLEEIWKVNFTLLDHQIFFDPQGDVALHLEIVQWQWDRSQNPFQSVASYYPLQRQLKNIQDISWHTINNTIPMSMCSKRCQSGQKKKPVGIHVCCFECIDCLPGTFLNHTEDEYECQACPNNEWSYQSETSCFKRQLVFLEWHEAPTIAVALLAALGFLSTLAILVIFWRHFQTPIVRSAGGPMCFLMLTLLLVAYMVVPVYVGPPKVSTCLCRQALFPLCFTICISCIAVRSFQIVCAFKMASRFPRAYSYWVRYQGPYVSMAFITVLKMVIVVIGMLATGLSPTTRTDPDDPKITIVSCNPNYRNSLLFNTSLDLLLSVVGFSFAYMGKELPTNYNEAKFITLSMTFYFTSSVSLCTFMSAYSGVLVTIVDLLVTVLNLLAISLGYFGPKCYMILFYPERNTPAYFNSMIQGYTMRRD
T1 sequence (Q7RTX0 21-852): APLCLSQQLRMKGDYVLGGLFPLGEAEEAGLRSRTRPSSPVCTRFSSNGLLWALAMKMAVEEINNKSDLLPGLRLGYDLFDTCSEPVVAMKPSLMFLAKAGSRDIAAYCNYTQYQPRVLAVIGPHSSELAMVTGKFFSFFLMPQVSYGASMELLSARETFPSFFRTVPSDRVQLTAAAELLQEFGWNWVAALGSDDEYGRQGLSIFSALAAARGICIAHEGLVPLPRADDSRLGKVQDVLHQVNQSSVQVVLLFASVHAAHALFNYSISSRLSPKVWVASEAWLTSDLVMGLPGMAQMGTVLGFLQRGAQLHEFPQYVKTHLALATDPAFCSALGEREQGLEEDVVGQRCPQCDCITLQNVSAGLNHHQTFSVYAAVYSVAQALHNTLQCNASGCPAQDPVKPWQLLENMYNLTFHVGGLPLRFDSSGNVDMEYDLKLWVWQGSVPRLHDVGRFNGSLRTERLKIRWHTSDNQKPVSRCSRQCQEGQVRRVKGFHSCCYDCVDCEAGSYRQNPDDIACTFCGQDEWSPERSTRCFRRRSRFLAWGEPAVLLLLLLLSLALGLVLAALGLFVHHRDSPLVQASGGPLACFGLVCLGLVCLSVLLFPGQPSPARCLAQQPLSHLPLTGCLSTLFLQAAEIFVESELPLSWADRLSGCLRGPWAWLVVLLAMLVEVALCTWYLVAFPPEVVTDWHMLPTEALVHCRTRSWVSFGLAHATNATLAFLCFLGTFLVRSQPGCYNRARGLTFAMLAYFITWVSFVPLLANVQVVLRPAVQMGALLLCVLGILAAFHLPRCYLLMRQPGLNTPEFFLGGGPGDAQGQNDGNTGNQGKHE
The settings on record: relative sweetness on a weight comparison basis to sucrose (= 1.0); ranges: varied with the concentration of sucrose.

As to “4β,11α-Dimethyl-1,2,3,4,5,10-hexahydro-fluorene-4α,6α-dicarboxylic acid”, the Sweetness/potency was 1,300-1,800^d.

Take `COc1c(O)cc2c(c1O)C(=O)[C@H](OC(C)=O)[C@@H](c1ccc(O)c(O)c1)O2` [(2R,3R)-2,3-Dihydro-5,7,3′,4′-tetrahydroxy-6-methoxy-3-O-acetylflavonol]: the Sweetness/potency is given as 25.

In the case of `COc1c(O)cc2c(c1O)C(=O)[C@H](O)[C@@H](c1ccc(O)c(O)c1)O2` [(2R,3R)-2,3-Dihydro-5,7,3′,4′-tetrahydroxy-6-methoxyflavonol], the Sweetness/potency is recorded as 15.

Consider `COc1c(O)cc2c(c1O)C(=O)[C@H](OC(C)=O)[C@@H](c1ccc(O)cc1)O2` [(2R,3R)-2,3-Dihydro-5,7,4′-trihydroxy-6-methoxy-3-O-acetylflavonol], for which the Sweetness/potency was 20.

With `CC(=O)O[C@H]1C(=O)c2c(O)cc(O)cc2O[C@@H]1c1ccc(O)c(O)c1` [(2R,3R)-Dihydroquercetin 3-O-acetate], the Sweetness/potency was 80. In the case of `CC(C)=CCC[C@](C)(O)[C@@H]1CCC(C)=CC1=O` [(+)-Hernandulcin], the Sweetness/potency is listed as 1,500.

On to `CC1=CC[C@@H]([C@@H](C)[C@H]2CC[C@@]3(C)[C@@H]4CC[C@H]5[C@](C)(C(=O)O)[C@@H](O[C@@H]6O[C@H](CO)[C@@H](O)[C@H](O)[C@H]6O)CC[C@@]56C[C@@]46CC[C@]23C)OC1=O` [Abrusoside A], for which the Sweetness/potency is 30. On to `COC(=O)[C@H]1O[C@@H](O[C@H]2[C@H](O[C@H]3CC[C@]45C[C@]46CC[C@]4(C)[C@@H]([C@H](C)[C@@H]7CC=C(C)C(=O)O7)CC[C@@]4(C)[C@@H]6CC[C@H]5[C@]3(C)C(=O)O)O[C@H](CO)[C@@H](O)[C@@H]2O)[C@H](O)[C@@H](O)[C@@H]1O` [Abrusoside B], for which the Sweetness/potency was 100. For the compound `CC1=CC[C@@H]([C@@H](C)[C@H]2CC[C@@]3(C)[C@@H]4CC[C@H]5[C@](C)(C(=O)O)[C@@H](O[C@@H]6O[C@H](CO)[C@@H](O)[C@H](O)[C@H]6O[C@@H]6O[C@H](CO)[C@@H](O)[C@H](O)[C@H]6O)CC[C@@]56C[C@@]46CC[C@]23C)OC1=O` [Abrusoside C], the Sweetness/potency is reported as 50. As to `CC1=CC[C@@H]([C@@H](C)[C@H]2CC[C@@]3(C)[C@@H]4CC[C@H]5[C@](C)(C(=O)O)[C@@H](O[C@@H]6O[C@H](CO)[C@@H](O)[C@H](O)[C@H]6O[C@@H]6O[C@H](C(=O)O)[C@@H](O)[C@H](O)[C@H]6O)CC[C@@]56C[C@@]46CC[C@]23C)OC1=O` [Abrusoside D], the Sweetness/potency is recorded as 75.

`CC1(C)C[C@H]2C3=CC[C@@H]4[C@@]5(C)CC[C@H](O[C@@H]6O[C@H](CO[C@@H]7OC[C@H](O)[C@H](O)[C@H]7O[C@@H]7OC[C@@H](O)[C@H](O)[C@H]7O)[C@@H](O)[C@H](O)[C@H]6O)C(C)(C)[C@@H]5CC[C@@]4(C)[C@]3(C)C[C@@H](O)[C@@]23C[C@@H]1OC3=O` [Albiziasaponin A]: the Sweetness/potency was 5. As for `CC1(C(=O)O)CCC2(C)CCC3(C)C(=CC(=O)C4C5(C)CCC(OC6OC(C(=O)O)C(O)C(O)C6OC6OCC(O)(CO)C6O)C(C)(C)C5CCC43C)C2C1` (centres unmarked) [Apioglycyrrhizin], the Sweetness/potency was 300. For `CC1(C)[C@@H](O[C@H]2O[C@H](C(=O)O)[C@@H](O)[C@H](O)[C@H]2O[C@@H]2OC[C@H](O)[C@H](O)[C@H]2O)CC[C@]2(C)[C@H]3C(=O)C=C4[C@@H]5C[C@@](C)(C(=O)O)CC[C@]5(C)CC[C@@]4(C)[C@]3(C)CC[C@@H]12` [Araboglycyrrhizin], the Sweetness/potency is reported as 150. Turning to `C/C(=C\CC[C@@H](C)[C@H]1CC[C@@]2(C)[C@@H]3CC=C4[C@@H](CC[C@H](O[C@@H]5O[C@H](CO)[C@@H](O)[C@H](O)[C@H]5O)C4(C)C)[C@]3(C)[C@H](O)C[C@]12C)CO[C@@H]1O[C@H](CO[C@@H]2O[C@H](CO)[C@@H](O)[C@H](O)[C@H]2O)[C@@H](O)[C@H](O)[C@H]1O` [Carnosifloside VI], the Sweetness/potency is 77.

Regarding `COc1ccc(C2Oc3cc(O)cc(O)c3C(=O)C2OC(C)=O)cc1O` (centres unmarked) [Dihydroquercetin 3-O-acetate 4′-methyl ether], the Sweetness/potency is 400. Regarding `C=C1C[C@@]23CC[C@H]4[C@@](C)(CCC[C@@]4(C)C(=O)O[C@@H]4O[C@H](CO)[C@@H](O)[C@H](O)[C@H]4O)[C@@H]2CC[C@]1(O[C@@H]1O[C@H](CO)[C@@H](O)[C@H](O)[C@H]1O[C@@H]1O[C@@H](C)[C@H](O)[C@@H](O)[C@H]1O)C3` [Dulcoside A], the Sweetness/potency was 30. Turning to `C/C(=C\CO)CCC1=C(C=O)CC(OC2OCC(O)C(O)C2O)C2C(C)(CO)CCCC12C` (centres unmarked) [Gaudichaudioside A], the Sweetness/potency is 55. On to `CC1(C)[C@@H](O[C@H]2O[C@H](C(=O)O)[C@@H](O)[C@H](O)[C@H]2O[C@@H]2O[C@H](C(=O)O)[C@@H](O)[C@H](O)[C@H]2O)CC[C@]2(C)[C@H]3C(=O)C=C4[C@@H]5C[C@@](C)(C(=O)O)CC[C@]5(C)CC[C@@]4(C)[C@]3(C)CC[C@@H]12` [Glycyrrhizin], for which the Sweetness/potency is on record as 93-170^d. With `Oc1cc2c(cc1O)[C@@H]1c3ccc(O)c(O)c3OC[C@]1(O)C2` [Hematoxylin], the Sweetness/potency is recorded as 120. In the case of `C[C@H](CC[C@@H](O[C@@H]1O[C@H](CO)[C@@H](O)[C@H](O)[C@H]1O[C@@H]1O[C@H](CO)[C@@H](O)[C@H](O)[C@H]1O)C(C)(C)O)[C@H]1CC[C@@]2(C)[C@H]3CC=C4[C@@H](CC[C@H](O[C@@H]5O[C@H](CO[C@@H]6O[C@H](CO)[C@@H](O)[C@H](O)[C@H]6O)[C@@H](O)[C@H](O)[C@H]5O)C4(C)C)[C@]3(C)[C@H](O)C[C@]12C` [Mogroside IV], the Sweetness/potency is given as 233-392^d. With `C[C@H](CC[C@@H](O[C@@H]1O[C@H](CO[C@@H]2O[C@H](CO)[C@@H](O)[C@H](O)[C@H]2O)[C@@H](O)[C@H](O)[C@H]1O[C@@H]1O[C@H](CO)[C@@H](O)[C@H](O)[C@H]1O)C(C)(C)O)[C@H]1CC[C@@]2(C)[C@@H]3CC=C4[C@@H](CC[C@H](O[C@@H]5O[C@H](CO[C@@H]6O[C@H](CO)[C@@H](O)[C@H](O)[C@H]6O)[C@@H](O)[C@H](O)[C@H]5O)C4(C)C)[C@]3(C)[C@H](O)C[C@]12C` [Mogroside V], the Sweetness/potency is on record as 250-425^d. On to `N[C@@H](C[C@@](O)(Cc1c[nH]c2ccccc12)C(=O)O)C(=O)O` [Monatin], for which the Sweetness/potency is on record as 1,200-1,400^d.

Consider `C/C(=C\CC/C(C)=C/CO[C@@H]1O[C@H](CO)[C@@H](O)[C@H](O[C@@H]2O[C@@H](C)[C@H](O)[C@@H](O)[C@H]2O)[C@H]1O[C@@H]1O[C@@H](C)[C@H](O)[C@@H](O)[C@H]1O)CC/C=C(\C)CO[C@@H]1O[C@H](CO)[C@@H](O)[C@H](O[C@@H]2O[C@@H](C)[C@H](O)[C@@H](O)[C@H]2O)[C@H]1O[C@@H]1O[C@@H](C)[C@H](O)[C@@H](O)[C@H]1O` [Mukurozioside IIb], for which the Sweetness/potency entry was “ca. 1”. Consider `C[C@@H]1O[C@@H](O[C@H]2[C@H](Oc3cc(O)c(C(=O)CCc4ccc(O)cc4)c(O)c3)O[C@H](CO)[C@@H](O)[C@@H]2O)[C@H](O)[C@H](O)[C@H]1O` [Naringin dihydrochalcone], for which the Sweetness/potency is given as 300.

With `COc1ccc(CCC(=O)c2c(O)cc(O[C@@H]3O[C@H](CO)[C@@H](O)[C@H](O)[C@H]3O[C@@H]3O[C@@H](C)[C@H](O)[C@@H](O)[C@H]3O)cc2O)cc1O` [Neohesperidin dihydrochalcone], the Sweetness/potency was 1,000. As to `C[C@@H]1O[C@@H](O[C@H]2O[C@@H]([C@@H](C)C3CC[C@@H]4[C@H]5CC(=O)[C@@H]6C[C@H](O[C@@H]7O[C@H](CO)[C@@H](O)[C@H](O)[C@H]7O[C@@H]7O[C@@H](C)[C@H](O)[C@@H](O)[C@H]7O)CC[C@]6(C)[C@@H]5CC[C@]34C)CC[C@@H]2C)[C@H](O)[C@H](O)[C@H]1O` (some centres unmarked) [Osladin], the Sweetness/potency is listed as 500.
